US20130338106A1, “COMPOUNDS INHIBITING LEUCINE-RICH REPEAT KINASE ENZYME ACTIVITY” (priority 2011, published 2013)
Like-named read-outs stand apart in the source and are kept apart here.

How the values were obtained:
Assay type in all cases: biochemical
MAPKAPK3 = molecular target: T1, MAPKAPK3 (Homo sapiens, UniProt Q16644); assay: ProfilerPro Kinase Selectivity, MAPKAPK3; conditions: tested at 10 uM, read-out: percent inhibition of the kinase activity
T1 construct: purchased Caliper LifeSciences
Protocol: (§1) Kinome selectivity profiling was performed using two example compounds according to the manufacturer's instructions using Caliper LifeSciences' ProfilerPro Kinase Selectivity Assay Kits. Compounds prepared in Examples 1 and 7 were tested at 10 uM and data were recorded using the Caliper LabChip® EZ Reader™. Each compounds' percent inhibition of the kinase activity measured in this manner is reported in the following lists.

ABL1 G250E = molecular target: T2, ABL1 G250E (Homo sapiens, UniProt P00519, G250E); assay: ProfilerPro Kinase Selectivity, ABL1 G250E; conditions: tested at 10 uM, read-out: percent inhibition of the kinase activity
T2 construct: purchased Caliper LifeSciences
Protocol: as §1

PIM2 = molecular target: T3, PIM2 (Homo sapiens, UniProt Q9P1W9); assay: ProfilerPro Kinase Selectivity, PIM2; conditions: tested at 10 uM, read-out: percent inhibition of the kinase activity
T3 construct: purchased Caliper LifeSciences
Protocol: as §1

TYRO3 = molecular target: T4, TYRO3 (Homo sapiens, UniProt Q06418); assay: ProfilerPro Kinase Selectivity, TYRO3; conditions: tested at 10 uM, read-out: percent inhibition of the kinase activity
T4 construct: purchased Caliper LifeSciences
Protocol: as §1

EPHA8 = molecular target: T5, EPHA8 (Homo sapiens, UniProt P29322); assay: ProfilerPro Kinase Selectivity, EPHA8; conditions: tested at 10 uM, read-out: percent inhibition of the kinase activity
T5 construct: purchased Caliper LifeSciences
Protocol: as §1

LRRK2 = LRRK2 (Homo sapiens, UniProt Q5S007); assay: ProfilerPro Kinase Selectivity, LRRK2; conditions: read-out: percent inhibition of the kinase activity
Protocol: Kinome selectivity profiling was performed using two example compounds according to the manufacturer's instructions using Caliper LifeSciences' ProfilerPro Kinase Selectivity Assay Kits. Compounds prepared in Examples 1 and 7 were tested at 10 uM and data were recorded using the Caliper LabChip® EZ Reader™.

DYRK1A = molecular target: T6, DYRK1A (Homo sapiens, UniProt Q13627); assay: ProfilerPro Kinase Selectivity, DYRK1A; conditions: tested at 10 uM, read-out: percent inhibition of the kinase activity
T6 construct: purchased Caliper LifeSciences
Protocol: as §1

FLT-3 D835Y = molecular target: T7, FLT-3 D835Y (Homo sapiens, UniProt P36888, D835Y); assay: ProfilerPro Kinase Selectivity, FLT-3 D835Y; conditions: tested at 10 uM, read-out: percent inhibition of the kinase activity
T7 construct: purchased Caliper LifeSciences
Protocol: as §1

CAMK1D = molecular target: T8, CAMK1D (Homo sapiens, UniProt Q8IU85); assay: ProfilerPro Kinase Selectivity, CAMK1D; conditions: tested at 10 uM, read-out: percent inhibition of the kinase activity
T8 construct: purchased Caliper LifeSciences
Protocol: as §1

KIT T670I = molecular target: T9, KIT T670I (Homo sapiens, UniProt P10721, T670I); assay: ProfilerPro Kinase Selectivity, KIT T670I; conditions: tested at 10 uM, read-out: percent inhibition of the kinase activity
T9 construct: purchased Caliper LifeSciences
Protocol: as §1

FLT4 = molecular target: T10, FLT4 (Homo sapiens, UniProt P35916); assay: ProfilerPro Kinase Selectivity, FLT4; conditions: tested at 10 uM, read-out: percent inhibition of the kinase activity
T10 construct: purchased Caliper LifeSciences
Protocol: as §1

P70S6K = molecular target: T11, P70S6K (Homo sapiens, UniProt P23443); assay: ProfilerPro Kinase Selectivity, P70S6K; conditions: tested at 10 uM, read-out: percent inhibition of the kinase activity
T11 construct: purchased Caliper LifeSciences
Protocol: as §1

PDGFRA D842V = molecular target: T12, PDGFRA D842V (Homo sapiens, UniProt P16234, D842V); assay: ProfilerPro Kinase Selectivity, PDGFRA D842V; conditions: tested at 10 uM, read-out: percent inhibition of the kinase activity
T12 construct: purchased Caliper LifeSciences
Protocol: as §1

PRKCQ = molecular target: T13, PRKCQ (Homo sapiens, UniProt Q04759); assay: ProfilerPro Kinase Selectivity, PRKCQ; conditions: tested at 10 uM, read-out: percent inhibition of the kinase activity
T13 construct: purchased Caliper LifeSciences
Protocol: as §1

P38G = molecular target: T14, P38G (Homo sapiens, UniProt P53778); assay: ProfilerPro Kinase Selectivity, P38G; conditions: tested at 10 uM, read-out: percent inhibition of the kinase activity
T14 construct: purchased Caliper LifeSciences
Protocol: as §1

PKD3 = molecular target: T15, PKD3 (Homo sapiens, UniProt O94806); assay: ProfilerPro Kinase Selectivity, PKD3; conditions: tested at 10 uM, read-out: percent inhibition of the kinase activity
T15 construct: purchased Caliper LifeSciences
Protocol: as §1

CSNK1A1 = molecular target: T16, CSNK1A1 (Homo sapiens, UniProt P48729); assay: ProfilerPro Kinase Selectivity, CSNK1A1; conditions: tested at 10 uM, read-out: percent inhibition of the kinase activity
T16 construct: purchased Caliper LifeSciences
Protocol: as §1

CDK2 = molecular target: T17, CDK2 (Homo sapiens, UniProt P24941); assay: ProfilerPro Kinase Selectivity, CDK2; conditions: tested at 10 uM, read-out: percent inhibition of the kinase activity
T17 construct: purchased Caliper LifeSciences
Protocol: as §1

NEK2 = molecular target: T18, NEK2 (Homo sapiens, UniProt P51955); assay: ProfilerPro Kinase Selectivity, NEK2; conditions: tested at 10 uM, read-out: percent inhibition of the kinase activity
T18 construct: purchased Caliper LifeSciences
Protocol: as §1

EGFR T790M = molecular target: T19, EGFR T790M (Homo sapiens, UniProt P00533, T790M); assay: ProfilerPro Kinase Selectivity, EGFR T790M; conditions: tested at 10 uM, read-out: percent inhibition of the kinase activity
T19 construct: purchased Caliper LifeSciences
Protocol: as §1

FER = molecular target: T20, FER (Homo sapiens, UniProt P16591); assay: ProfilerPro Kinase Selectivity, FER; conditions: tested at 10 uM, read-out: percent inhibition of the kinase activity
T20 construct: purchased Caliper LifeSciences
Protocol: as §1

EPHB1 = molecular target: T21, EPHB1 (Homo sapiens, UniProt P54762); assay: ProfilerPro Kinase Selectivity, EPHB1; conditions: tested at 10 uM, read-out: percent inhibition of the kinase activity
T21 construct: purchased Caliper LifeSciences
Protocol: as §1

EPHB2 = molecular target: T22, EPHB2 (Homo sapiens, UniProt P29323); assay: ProfilerPro Kinase Selectivity, EPHB2; conditions: tested at 10 uM, read-out: percent inhibition of the kinase activity
T22 construct: purchased Caliper LifeSciences
Protocol: as §1

DCAMKL1 = molecular target: T23, DCAMKL1 (Homo sapiens, UniProt O15075); assay: ProfilerPro Kinase Selectivity, DCAMKL1; conditions: tested at 10 uM, read-out: percent inhibition of the kinase activity
T23 construct: purchased Caliper LifeSciences
Protocol: as §1

ABL = molecular target: T24, ABL (Homo sapiens, UniProt P00519); assay: ProfilerPro Kinase Selectivity, ABL; conditions: tested at 10 uM, read-out: percent inhibition of the kinase activity
T24 construct: purchased Caliper LifeSciences
Protocol: as §1

EPHA5 = molecular target: T25, EPHA5 (Homo sapiens, UniProt P54756); assay: ProfilerPro Kinase Selectivity, EPHA5; conditions: tested at 10 uM, read-out: percent inhibition of the kinase activity
T25 construct: purchased Caliper LifeSciences
Protocol: as §1

MARK4 = molecular target: T26, MARK4 (Homo sapiens, UniProt Q96L34); assay: ProfilerPro Kinase Selectivity, MARK4; conditions: tested at 10 uM, read-out: percent inhibition of the kinase activity
T26 construct: purchased Caliper LifeSciences
Protocol: as §1

P38A = molecular target: T27, P38A (Homo sapiens, UniProt Q16539); assay: ProfilerPro Kinase Selectivity, P38A; conditions: tested at 10 uM, read-out: percent inhibition of the kinase activity
T27 construct: purchased Caliper LifeSciences
Protocol: as §1

GCK = molecular target: T28, GCK (Homo sapiens, UniProt Q12851); assay: ProfilerPro Kinase Selectivity, GCK; conditions: tested at 10 uM, read-out: percent inhibition of the kinase activity
T28 construct: purchased Caliper LifeSciences
Protocol: as §1

DYRK3 = molecular target: T29, DYRK3 (Homo sapiens, UniProt O43781); assay: ProfilerPro Kinase Selectivity, DYRK3; conditions: tested at 10 uM, read-out: percent inhibition of the kinase activity
T29 construct: purchased Caliper LifeSciences
Protocol: as §1

MAPKAPK5 = molecular target: T30, MAPKAPK5 (Homo sapiens, UniProt Q8IW41); assay: ProfilerPro Kinase Selectivity, MAPKAPK5; conditions: tested at 10 uM, read-out: percent inhibition of the kinase activity
T30 construct: purchased Caliper LifeSciences
Protocol: as §1

MST1R = molecular target: T31, MST1R (Homo sapiens, UniProt Q04912); assay: ProfilerPro Kinase Selectivity, MST1R; conditions: tested at 10 uM, read-out: percent inhibition of the kinase activity
T31 construct: purchased Caliper LifeSciences
Protocol: as §1

CASEIN K1G2 = molecular target: T32, CASEIN K1G2 (Homo sapiens, UniProt P78368); assay: ProfilerPro Kinase Selectivity, CASEIN K1G2; conditions: tested at 10 uM, read-out: percent inhibition of the kinase activity
T32 construct: purchased Caliper LifeSciences
Protocol: as §1

RSK2 = molecular target: T33, RSK2 (Homo sapiens, UniProt P51812); assay: ProfilerPro Kinase Selectivity, RSK2; conditions: tested at 10 uM, read-out: percent inhibition of the kinase activity
T33 construct: purchased Caliper LifeSciences
Protocol: as §1

PRKCA = molecular target: T34, PRKCA (Homo sapiens, UniProt P17252); assay: ProfilerPro Kinase Selectivity, PRKCA; conditions: tested at 10 uM, read-out: percent inhibition of the kinase activity
T34 construct: purchased Caliper LifeSciences
Protocol: as §1

PDGFRB = molecular target: T35, PDGFRB (Homo sapiens, UniProt P09619); assay: ProfilerPro Kinase Selectivity, PDGFRB; conditions: tested at 10 uM, read-out: percent inhibition of the kinase activity
T35 construct: purchased Caliper LifeSciences
Protocol: as §1

T31 sequence (Q04912 25-1400, species assumed): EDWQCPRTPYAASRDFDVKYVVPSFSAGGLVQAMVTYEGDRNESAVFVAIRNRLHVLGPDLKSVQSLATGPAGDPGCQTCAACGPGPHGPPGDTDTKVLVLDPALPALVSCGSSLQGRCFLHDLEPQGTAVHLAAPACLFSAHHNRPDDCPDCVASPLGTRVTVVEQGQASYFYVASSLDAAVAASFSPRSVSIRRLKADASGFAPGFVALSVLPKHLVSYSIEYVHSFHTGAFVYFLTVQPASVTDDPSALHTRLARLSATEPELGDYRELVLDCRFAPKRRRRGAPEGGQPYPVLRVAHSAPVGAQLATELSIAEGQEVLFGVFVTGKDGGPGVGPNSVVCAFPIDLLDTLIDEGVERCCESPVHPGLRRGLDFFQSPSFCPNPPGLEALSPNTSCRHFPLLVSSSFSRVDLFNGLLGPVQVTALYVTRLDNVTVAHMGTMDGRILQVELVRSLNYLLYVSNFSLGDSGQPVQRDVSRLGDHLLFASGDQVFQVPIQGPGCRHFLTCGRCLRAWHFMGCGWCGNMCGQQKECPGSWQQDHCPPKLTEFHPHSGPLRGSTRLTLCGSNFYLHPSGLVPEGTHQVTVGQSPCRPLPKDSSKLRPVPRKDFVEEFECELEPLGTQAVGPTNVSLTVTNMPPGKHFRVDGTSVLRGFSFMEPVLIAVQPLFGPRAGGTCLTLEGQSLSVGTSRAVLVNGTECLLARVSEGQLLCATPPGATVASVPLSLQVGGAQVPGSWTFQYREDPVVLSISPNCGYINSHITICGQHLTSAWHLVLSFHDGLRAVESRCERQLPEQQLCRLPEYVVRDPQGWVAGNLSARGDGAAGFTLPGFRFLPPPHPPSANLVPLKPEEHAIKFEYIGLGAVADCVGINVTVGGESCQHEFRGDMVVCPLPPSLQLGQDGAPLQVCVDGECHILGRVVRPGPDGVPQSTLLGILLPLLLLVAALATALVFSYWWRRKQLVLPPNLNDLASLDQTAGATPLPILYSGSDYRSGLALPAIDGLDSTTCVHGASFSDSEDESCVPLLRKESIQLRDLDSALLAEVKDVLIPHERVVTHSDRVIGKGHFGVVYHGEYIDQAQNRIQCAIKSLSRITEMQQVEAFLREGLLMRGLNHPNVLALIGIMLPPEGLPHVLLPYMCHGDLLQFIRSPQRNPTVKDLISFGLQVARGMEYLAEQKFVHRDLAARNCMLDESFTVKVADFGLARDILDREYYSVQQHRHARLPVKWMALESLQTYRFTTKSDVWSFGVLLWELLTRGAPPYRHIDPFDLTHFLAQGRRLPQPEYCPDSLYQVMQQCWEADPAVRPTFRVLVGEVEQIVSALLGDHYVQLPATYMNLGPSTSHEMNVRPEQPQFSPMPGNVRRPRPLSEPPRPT
T30 sequence (Q8IW41 whole entry, species assumed): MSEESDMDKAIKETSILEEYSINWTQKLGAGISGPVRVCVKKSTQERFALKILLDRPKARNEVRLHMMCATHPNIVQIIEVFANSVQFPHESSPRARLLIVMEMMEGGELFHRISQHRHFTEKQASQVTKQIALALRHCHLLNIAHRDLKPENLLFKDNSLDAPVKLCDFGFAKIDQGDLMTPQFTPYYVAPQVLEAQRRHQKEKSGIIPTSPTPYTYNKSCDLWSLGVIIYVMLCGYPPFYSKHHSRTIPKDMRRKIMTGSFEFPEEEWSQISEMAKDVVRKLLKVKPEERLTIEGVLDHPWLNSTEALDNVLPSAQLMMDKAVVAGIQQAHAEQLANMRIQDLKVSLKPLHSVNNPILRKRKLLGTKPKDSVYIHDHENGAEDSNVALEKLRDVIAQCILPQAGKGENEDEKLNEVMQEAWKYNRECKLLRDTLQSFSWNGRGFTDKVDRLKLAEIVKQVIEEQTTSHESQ
T18 sequence (P51955 whole entry, species assumed): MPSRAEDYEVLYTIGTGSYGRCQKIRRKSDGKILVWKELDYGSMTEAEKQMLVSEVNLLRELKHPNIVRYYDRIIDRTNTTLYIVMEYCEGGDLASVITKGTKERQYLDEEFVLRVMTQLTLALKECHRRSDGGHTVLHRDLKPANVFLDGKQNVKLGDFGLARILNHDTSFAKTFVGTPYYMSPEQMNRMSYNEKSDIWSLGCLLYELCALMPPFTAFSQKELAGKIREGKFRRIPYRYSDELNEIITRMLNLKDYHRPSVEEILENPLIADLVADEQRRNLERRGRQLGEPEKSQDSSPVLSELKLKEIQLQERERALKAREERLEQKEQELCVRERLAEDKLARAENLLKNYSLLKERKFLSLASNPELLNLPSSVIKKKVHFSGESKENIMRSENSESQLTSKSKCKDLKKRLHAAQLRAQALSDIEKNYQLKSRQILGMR
T22 sequence (P29323 19-1055, species assumed): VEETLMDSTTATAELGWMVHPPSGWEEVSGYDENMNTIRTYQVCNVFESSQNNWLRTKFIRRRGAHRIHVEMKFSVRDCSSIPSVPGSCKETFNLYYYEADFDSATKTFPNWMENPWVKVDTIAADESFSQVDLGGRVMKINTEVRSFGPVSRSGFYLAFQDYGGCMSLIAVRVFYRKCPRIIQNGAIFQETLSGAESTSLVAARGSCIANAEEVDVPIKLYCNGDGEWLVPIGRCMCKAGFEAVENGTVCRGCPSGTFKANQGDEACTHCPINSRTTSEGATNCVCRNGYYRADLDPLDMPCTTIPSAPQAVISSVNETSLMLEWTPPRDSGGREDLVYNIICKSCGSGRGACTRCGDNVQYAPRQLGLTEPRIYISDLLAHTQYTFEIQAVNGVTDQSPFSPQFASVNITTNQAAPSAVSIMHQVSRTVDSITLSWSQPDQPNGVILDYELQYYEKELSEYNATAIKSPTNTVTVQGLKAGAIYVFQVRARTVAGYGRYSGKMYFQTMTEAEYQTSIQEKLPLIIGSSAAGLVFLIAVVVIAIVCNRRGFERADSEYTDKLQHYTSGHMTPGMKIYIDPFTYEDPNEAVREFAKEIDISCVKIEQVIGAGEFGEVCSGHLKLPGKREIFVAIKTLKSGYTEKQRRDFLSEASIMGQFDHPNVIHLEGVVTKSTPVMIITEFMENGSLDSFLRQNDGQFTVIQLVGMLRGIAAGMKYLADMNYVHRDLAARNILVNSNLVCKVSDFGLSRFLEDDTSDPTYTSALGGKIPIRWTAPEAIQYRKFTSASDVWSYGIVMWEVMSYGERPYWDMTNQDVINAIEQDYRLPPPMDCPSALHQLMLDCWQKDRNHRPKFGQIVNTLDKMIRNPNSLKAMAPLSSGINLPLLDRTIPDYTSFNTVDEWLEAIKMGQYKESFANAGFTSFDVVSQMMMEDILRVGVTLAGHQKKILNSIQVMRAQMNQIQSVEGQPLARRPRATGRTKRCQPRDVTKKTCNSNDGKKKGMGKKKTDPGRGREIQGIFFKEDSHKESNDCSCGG
T10 sequence (P35916 25-1363, species assumed): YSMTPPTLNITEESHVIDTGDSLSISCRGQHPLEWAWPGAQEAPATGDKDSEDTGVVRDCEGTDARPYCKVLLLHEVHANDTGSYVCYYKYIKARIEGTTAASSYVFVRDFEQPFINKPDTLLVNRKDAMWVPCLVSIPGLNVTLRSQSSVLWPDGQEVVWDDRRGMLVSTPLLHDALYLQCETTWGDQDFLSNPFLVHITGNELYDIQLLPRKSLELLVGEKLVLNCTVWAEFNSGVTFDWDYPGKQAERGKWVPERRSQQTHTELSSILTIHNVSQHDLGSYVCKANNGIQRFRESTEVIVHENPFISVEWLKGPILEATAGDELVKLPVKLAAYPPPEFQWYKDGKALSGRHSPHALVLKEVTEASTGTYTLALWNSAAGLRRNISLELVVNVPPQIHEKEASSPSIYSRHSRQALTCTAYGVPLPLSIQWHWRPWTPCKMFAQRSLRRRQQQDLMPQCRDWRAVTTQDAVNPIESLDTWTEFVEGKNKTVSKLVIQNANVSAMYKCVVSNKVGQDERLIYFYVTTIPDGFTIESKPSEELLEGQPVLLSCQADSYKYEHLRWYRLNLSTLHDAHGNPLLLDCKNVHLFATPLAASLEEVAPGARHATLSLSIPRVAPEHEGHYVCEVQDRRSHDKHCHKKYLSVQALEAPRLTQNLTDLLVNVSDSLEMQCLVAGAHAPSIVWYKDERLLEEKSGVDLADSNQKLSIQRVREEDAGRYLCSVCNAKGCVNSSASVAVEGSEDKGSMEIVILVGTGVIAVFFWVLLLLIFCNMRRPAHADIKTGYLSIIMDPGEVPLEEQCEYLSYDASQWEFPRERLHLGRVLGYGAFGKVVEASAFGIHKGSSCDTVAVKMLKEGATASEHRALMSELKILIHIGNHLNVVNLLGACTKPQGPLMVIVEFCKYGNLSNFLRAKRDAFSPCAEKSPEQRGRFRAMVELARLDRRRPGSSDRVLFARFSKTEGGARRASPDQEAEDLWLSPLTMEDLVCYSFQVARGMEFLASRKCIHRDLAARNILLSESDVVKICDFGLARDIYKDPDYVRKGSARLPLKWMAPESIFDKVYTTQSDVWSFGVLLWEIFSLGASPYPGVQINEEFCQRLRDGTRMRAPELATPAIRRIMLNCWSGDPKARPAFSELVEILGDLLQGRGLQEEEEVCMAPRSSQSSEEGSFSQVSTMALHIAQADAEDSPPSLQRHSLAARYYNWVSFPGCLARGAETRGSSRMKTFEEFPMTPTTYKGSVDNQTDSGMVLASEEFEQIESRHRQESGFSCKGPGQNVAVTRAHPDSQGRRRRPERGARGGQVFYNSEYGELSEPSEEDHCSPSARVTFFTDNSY
T32 sequence (P78368 whole entry): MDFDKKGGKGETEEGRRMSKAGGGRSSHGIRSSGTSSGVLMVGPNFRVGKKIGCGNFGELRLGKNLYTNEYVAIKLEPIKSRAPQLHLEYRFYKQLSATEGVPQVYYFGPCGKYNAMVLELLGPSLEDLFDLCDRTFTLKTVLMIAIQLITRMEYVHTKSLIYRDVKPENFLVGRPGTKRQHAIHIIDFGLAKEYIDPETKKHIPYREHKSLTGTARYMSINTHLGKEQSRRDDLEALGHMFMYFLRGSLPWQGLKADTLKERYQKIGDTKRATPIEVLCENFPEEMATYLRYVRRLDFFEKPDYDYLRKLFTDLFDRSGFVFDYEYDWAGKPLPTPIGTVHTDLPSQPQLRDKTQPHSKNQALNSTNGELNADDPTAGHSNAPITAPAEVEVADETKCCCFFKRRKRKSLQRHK

## CC1(C)CC(=O)c2c(SC3CCCC3)sc(-c3cc[nH]n3)c2C1 [Example 7, 3-(Cyclopentylsulfanyl)-6,6-dimethyl-1-(1H-pyrazol-3-yl)-6,7-dihydro-2-benzothiophen-4(5H)-one]
MAPKAPK3
  inhibition at 10 µM: -1%
ABL1 G250E
  inhibition at 10 µM: 6.4%
PIM2
  inhibition at 10 µM: -1.6%
TYRO3
  inhibition at 10 µM: 10.5%
EPHA8
  inhibition at 10 µM: -3.8%
LRRK2; LRRK2, tested at 10 uM
  inhibition at 10 µM: 83.1%
DYRK1A
  inhibition at 10 µM: 0%
FLT-3 D835Y
  inhibition at 10 µM: 2.7%
CAMK1D
  inhibition at 10 µM: 4%
KIT T670I
  inhibition at 10 µM: 3%
FLT4
  inhibition at 10 µM: 2%
P70S6K
  inhibition at 10 µM: -4.8%
PDGFRA D842V
  inhibition at 10 µM: 3.7%
PRKCQ
  inhibition at 10 µM: -4.7%
P38G
  inhibition at 10 µM: -0.2%
PKD3
  inhibition at 10 µM: 2.6%
CSNK1A1
  inhibition at 10 µM: 2%
CDK2
  inhibition at 10 µM: 2.1%
NEK2
  inhibition at 10 µM: 0.9%
EGFR T790M
  inhibition at 10 µM: -1.9%
FER
  inhibition at 10 µM: -0.2%
EPHB1
  inhibition at 10 µM: 3.3%
EPHB2
  inhibition at 10 µM: 2.3%
DCAMKL1
  inhibition at 10 µM: -2.1%
ABL
  inhibition at 10 µM: 1.9%
EPHA5
  inhibition at 10 µM: 1.5%
MARK4
  inhibition at 10 µM: 11.6%
P38A
  inhibition at 10 µM: 0.6%
GCK
  inhibition at 10 µM: 11.8%
DYRK3
  inhibition at 10 µM: -8.5%
MAPKAPK5
  inhibition at 10 µM: 1.9%
MST1R
  inhibition at 10 µM: -7%
CASEIN K1G2
  inhibition at 10 µM: 8.6%
RSK2
  inhibition at 10 µM: 3.5%
PRKCA
  inhibition at 10 µM: 4.3%
PDGFRB
  inhibition at 10 µM: -1.4%

## CSc1sc(-c2cc[nH]n2)c2c1C(=O)CCC2 [Example 1, 3-(Methylsulfanyl)-1-(1H-pyrazol-3-yl)-6,7-dihydro-2-benzothiophen-4(5H)-one]
MAPKAPK3
  inhibition at 10 µM: 0.1%
ABL1 G250E
  inhibition at 10 µM: 5%
PIM2
  inhibition at 10 µM: 1.6%
TYRO3
  inhibition at 10 µM: 8.6%
EPHA8
  inhibition at 10 µM: -0.2%
LRRK2
  inhibition at 10 µM: 93.9%
DYRK1A
  inhibition at 10 µM: 44%
FLT-3 D835Y
  inhibition at 10 µM: 39.3%
CAMK1D
  inhibition at 10 µM: -3.1%
KIT T670I
  inhibition at 10 µM: 10.6%
FLT4
  inhibition at 10 µM: 22.5%
P70S6K
  inhibition at 10 µM: 5.7%
PDGFRA D842V
  inhibition at 10 µM: 33.9%
PRKCQ
  inhibition at 10 µM: -0.4%
P38G
  inhibition at 10 µM: 23.3%
PKD3
  inhibition at 10 µM: 12%
CSNK1A1
  inhibition at 10 µM: 12.4%
CDK2
  inhibition at 10 µM: 18.4%
NEK2
  inhibition at 10 µM: -0.8%
EGFR T790M
  inhibition at 10 µM: 1.8%
FER
  inhibition at 10 µM: 11.6%
EPHB1
  inhibition at 10 µM: 3%
EPHB2
  inhibition at 10 µM: 2.6%
DCAMKL1
  inhibition at 10 µM: -2.5%
ABL
  inhibition at 10 µM: 12.7%
EPHA5
  inhibition at 10 µM: -3.1%
MARK4
  inhibition at 10 µM: -9.4%
P38A
  inhibition at 10 µM: -2.3%
GCK
  inhibition at 10 µM: 6.3%
DYRK3
  inhibition at 10 µM: 11.7%
MAPKAPK5
  inhibition at 10 µM: 4.4%
MST1R
  inhibition at 10 µM: -1.3%
CASEIN K1G2
  inhibition at 10 µM: 6.9%
RSK2
  inhibition at 10 µM: 5.5%
PRKCA
  inhibition at 10 µM: 2.6%
PDGFRB
  inhibition at 10 µM: 22.1%
